From patent publication US20250249000A1, “SIK3 INHIBITORS FOR TREATING DISEASES RESISTANT TO DEATH RECEPTOR SIGNALLING” (IOMX THERAPEUTICS AG, priority 2022, published 2025)
“Also recorded” adds a separate entry of the source.

Assays:
Format in all cases: cell-based
[1] = tested on: murine colorectal carcinoma cell line MC38; experiment: TNF induced apoptosis in MC38 cells in combination with SIK3 inhibitor; conditions: 1 ng/ml TNF plus E9 vs DMSO control, caspase 3/7 at 8 hours, annexin V and cytotox red at 24 hours, FIG. 3
Description: (§1) The experiments were done briefly as follows: murine colorectal carcinoma cell line MC38, murine triple negative breast cancer cell line EMT6 and human melanoma tumor cell line A375 were treated with 1 ng/ml TNF, 0.8 ng/ml murine death receptor 5 targeting antibody (clone MD5-1) and 10 ng/ml complexed TRAIL, respectively, or with the appropriate negative controls, in combination with the SIK3 inhibitor E9 and an associated DMSO control. The onset of tumor cell death was monitored 8 hours after treatment initiation by analyzing cleavage of effector caspases 3/7 using Caspase-Glo® assay from Promega according to manufacturer's protocol. In addition, 24 hours after treatment initiation, the increase in extracellular phosphatidylserine expression was measured by annexin V expression level and cell membrane disruption by cytotox red staining, both according to manufacturer's protocol.

[2] = tested on: murine triple negative breast cancer cell line EMT6; experiment: Death receptor 5 antibody (MD5-1) induced apoptosis in EMT6 cells in combination with SIK3 inhibitor; conditions: 0.8 ng/ml murine death receptor 5 targeting antibody (clone MD5-1) plus E9 vs DMSO control, caspase 3/7 at 8 hours, annexin V and cytotox red at 24 hours, FIG. 4
Description: as §1

[3] = tested on: human melanoma tumor cell line A375; experiment: Complexed TRAIL induced apoptosis in A375 cells in combination with SIK3 inhibitor; conditions: 10 ng/ml complexed TRAIL plus E9 vs DMSO control, caspase 3/7 at 8 hours, annexin V and cytotox red at 24 hours, FIG. 5
Description: as §1

In the case of `Cc1nc(Nc2ncc(C(=O)Nc3c(CF)csc3Cl)s2)cc(N2CCN(C)CC2)n1` [Compound E9, N-(2-chloro-4-(fluoromethyl)thiophen-3-yl)-2-((2-methyl-6-(4-methylpiperazin-1-yl)pyrimidin-4-yl)amino)thiazole-5-carboxamide], the “enhancement of death receptor induced apoptosis (caspase-3/7 cleavage, annexin V, cytotox red)” value (“enhancement” below) [1] is reported as “potent enhancement of death receptor induced apoptosis; also recorded: enhanced death receptor mediated apoptosis”, the “enhancement” value [2] is reported as “potent enhancement of death receptor induced apoptosis; also recorded: enhanced death receptor mediated apoptosis” and the “enhancement” value [3] is reported as “enhanced death receptor mediated apoptosis; also recorded: potent enhancement of death receptor induced apoptosis”.
